Target: MAPK14 (human) (UniProt Q16539)
Assay: Inhibition of MAPK14 by Human Whole Blood Assay
Details: blood cells

Sequence of MAPK14 (human) (Q16539 whole entry, looked up): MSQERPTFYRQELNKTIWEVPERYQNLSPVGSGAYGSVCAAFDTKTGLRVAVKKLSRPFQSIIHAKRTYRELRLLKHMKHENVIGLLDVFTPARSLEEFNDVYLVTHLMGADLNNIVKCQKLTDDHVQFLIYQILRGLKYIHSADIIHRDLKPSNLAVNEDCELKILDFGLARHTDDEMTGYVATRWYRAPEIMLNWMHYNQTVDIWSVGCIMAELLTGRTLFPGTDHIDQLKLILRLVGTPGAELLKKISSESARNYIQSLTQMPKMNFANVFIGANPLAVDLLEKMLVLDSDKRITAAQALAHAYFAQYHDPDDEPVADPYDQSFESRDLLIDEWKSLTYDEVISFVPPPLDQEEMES

Structure (SMILES)	IC50
C[C@H](Nc1nccc(N(CC2CCNCC2)C(=O)c2cccc3ccccc23)n1)c1ccccc1	< 1000 nM
CC(C)Nc1nccc(N(CCCCN2CCCC2)C(=O)c2ccc3c(c2)CCO3)n1	< 1000 nM
CC(C)Nc1nccc(N(CC2CC2)C(=O)c2ccc3ccccc3c2)n1	< 1000 nM
O=C(c1ccc2ccccc2c1)N(Cc1ccc(F)cc1)c1ccnc(NC2CCN(Cc3ccccc3)CC2)c1	≤ 1000 nM
C[C@H](Nc1cc(N(Cc2ccc(F)cc2)S(=O)(=O)c2ccc3ccccc3c2)ccn1)c1ccccc1	≤ 1000 nM
COCCN(C(=O)c1cccc(C)c1C)c1ccnc(N[C@@H](C)c2ccccc2)n1	< 1000 nM
C[C@H](Nc1cc(N(C)C(=O)N2CCc3ccccc3C2)ccn1)c1ccccc1	≤ 1000 nM
CCN(C(=O)c1cccc(C(Cl)Cl)c1)c1ccnc(N[C@@H](C)c2ccccc2)n1	< 1000 nM
C[C@H](Nc1nccc(N(C)C(=O)c2ccc3ccccc3c2)n1)c1ccccc1	≤ 1000 nM
C[C@H](Nc1nccc(N(Cc2ccc(F)cc2)C(=O)c2ccc3ccccc3c2)n1)c1ccccc1	≤ 1000 nM
CCN(C(=O)c1ccc2snnc2c1)c1ccnc(N[C@@H](C)c2ccccc2)n1	≤ 1000 nM
C[C@H](Nc1nccc(N(CC2CCN(C(N)=O)CC2)C(=O)c2ccc3c(c2)CCO3)n1)c1ccccc1	< 1000 nM
O=C(c1ccc2ccccc2c1)N(CC1CC1)c1ccnc(NC2CCC(O)CC2)n1 (stereo unspecified)	< 1000 nM
NCCCCN(C(=O)c1ccc2c(c1)CCO2)c1ccnc(NC2CCC(O)CC2)n1 (stereo unspecified)	< 1000 nM
C[C@H](Nc1nccc(N(CC2CCN(C3CCCC3)CC2)C(=O)c2ccc3c(c2)CCO3)n1)c1ccccc1	< 1000 nM
CC1CCCCC1Nc1nccc(N(CC2CCNCC2)C(=O)c2ccc3c(c2)CCO3)n1 (stereo unspecified)	< 1000 nM
C[C@H](Nc1nccc(N(CC2CC2)C(=O)c2ccc3c(c2)CCO3)n1)c1ccccc1	< 1000 nM
C[C@H](Nc1nccc(N(CC2CCNC2)C(=O)c2ccc3c(c2)CCO3)n1)c1ccccc1 (stereo partly specified)	< 1000 nM
C[C@H](Nc1cc(N(Cc2ccc(F)cc2)C(=O)c2ccc3ccccc3c2)ccn1)c1ccc2ccccc2c1	≤ 1000 nM
O=C(c1ccc2c(c1)CCO2)N(CC1CCNCC1)c1ccnc(NC2CC2)n1	< 1000 nM
COC(=O)CN1CCC(CN(C(=O)c2ccc3c(c2)CCO3)c2ccnc(NC(C)C)n2)CC1	< 1000 nM
CCCN(C(=O)c1ccc2ccccc2c1)c1ccnc(N[C@@H](C)c2ccccc2)n1	≤ 1000 nM
C[C@H](Nc1nccc(N(Cc2ccc(S(C)(=O)=O)cc2)C(=O)c2ccc3ccccc3c2)n1)c1ccccc1	≤ 1000 nM
CC(C)Nc1nccc(N(CC2CCNCC2)C(=O)c2ccc3c(c2)CCO3)n1	< 1000 nM

Structure (SMILES)	IC50
CC(Nc1cc(N(Cc2ccc(F)cc2)C(=O)c2ccc3ccccc3c2)ccn1)c1ccc(Cl)cc1 (stereo unspecified)	≤ 1000 nM
Nc1cc(N(Cc2ccc(F)cc2)C(=O)c2ccc3ccccc3c2)ccn1	≤ 1000 nM
CC(C)Nc1nccc(N(CC2CC[C@H](N)C2)C(=O)c2ccc3c(c2)CCO3)n1 (stereo partly specified)	< 1000 nM
O=C(c1ccc2ccccc2c1)N(Cc1ccc(F)cc1)c1ccnc(NC(c2ccccc2)c2ccccc2)c1	≤ 1000 nM
C[C@H](Nc1nccc(N(C(=O)c2ccc3ccccc3c2)C2CC(C)(C)NC(C)(C)C2)n1)c1ccccc1	< 1000 nM
CNc1nccc(N(CC2CCNCC2)C(=O)c2ccc3ccccc3c2)n1	< 1000 nM
CC(C)Nc1nccc(N(C)C(=O)c2ccc3ccccc3c2)n1	≤ 1000 nM
CCCN(C(=O)c1ccc2ccccc2c1)c1ccnc(NC(C)C)n1	≤ 1000 nM
O=C(c1ccc2c(c1)CCC2)N(CC1CC1)c1ccnc(NC2CCC(O)CC2)n1 (stereo unspecified)	< 1000 nM
C[C@H](Nc1nccc(N(CCCCN)C(=O)c2ccc3c(c2)CCO3)n1)c1ccccc1	< 1000 nM
C[C@H](Nc1nccc(N(CC2CCNCC2)C(=O)c2sc3ccccc3c2Cl)n1)c1ccccc1	< 1000 nM
CC(=O)N(Cc1ccc(F)cc1)c1ccnc(N[C@@H](C)c2ccccc2)c1	≤ 1000 nM
C[C@H](Nc1cc(N(Cc2ccccc2)C(=O)c2ccc3ccccc3c2)ccn1)c1ccccc1	≤ 1000 nM
CC(C)Nc1nccc(N(Cc2ccc(F)cc2)C(=O)c2ccc3ccccc3c2)n1	≤ 1000 nM
CC(C)Nc1nccc(N(C(=O)c2ccc3ccccc3c2)C(C)C)n1	≤ 1000 nM
COCCN(C(=O)c1ccc2ccccc2c1)c1ccnc(NC(C)C)n1	≤ 1000 nM
CC(C)Nc1nccc(N(CCCCCN)C(=O)c2ccc3c(c2)CCO3)n1	< 1000 nM
COCC(C)Nc1nccc(N(CCCCN)C(=O)c2ccc3c(c2)CCO3)n1 (stereo unspecified)	< 1000 nM
CC(C)(C)CNc1nccc(N(CC2CCNCC2)C(=O)c2ccc3c(c2)CCO3)n1	< 1000 nM
O=C(c1ccc2ccccc2c1)N(Cc1ccc(F)cc1)c1ccnc(N[C@H]2CCc3ccccc32)c1	≤ 1000 nM
CC(C)Nc1nccc(N(CCCCN)C(=O)c2ccc3c(c2)CCO3)n1	< 1000 nM
O=C(c1ccc2ccccc2c1)N(Cc1ccc(F)cc1)c1ccnc(NCCN2CCOCC2)c1	≤ 1000 nM
CCC(C)Nc1nccc(N(CC2CCNCC2)C(=O)c2ccc3c(c2)CCO3)n1 (stereo unspecified)	< 1000 nM
CCN(C(=O)c1ccc2nccnc2c1)c1ccnc(N[C@@H](C)c2ccccc2)n1	≤ 1000 nM

Structure (SMILES)	IC50
C[C@H](Nc1cc(N(Cc2ccc(F)cc2)C(=O)c2ccccc2)ccn1)c1ccccc1	≤ 1000 nM
O=C(c1ccc2c(c1)CCO2)N(CC1CCNCC1)c1ccnc(NC2CCC[C@@H]2O)n1 (stereo partly specified)	< 1000 nM
CCN(C(=O)c1ccc2ccccc2c1)c1ccnc(N[C@@H](C)c2ccccc2)n1	≤ 1000 nM
CCN(C(=O)c1cccc(Cl)c1C)c1ccnc(N[C@@H](C)c2ccccc2)n1	< 1000 nM
C[C@H](Nc1nccc(N(C(=O)c2ccc3ccccc3c2)C2CCN(C(=O)OC(C)(C)C)CC2)n1)c1ccccc1	< 1000 nM
CCN(C(=O)c1scc2c1CCCC2)c1ccnc(N[C@@H](C)c2ccccc2)n1	< 1000 nM
CC(C)C(C)Nc1nccc(N(CC2CCNCC2)C(=O)c2ccc3c(c2)CCO3)n1 (stereo unspecified)	< 1000 nM
CCN(C(=O)c1cccc2c1OCC2)c1ccnc(N[C@@H](C)c2ccccc2)n1	< 1000 nM
CCC(COC)Nc1nccc(N(CC2CCNCC2)C(=O)c2ccc3c(c2)CCO3)n1 (stereo unspecified)	< 1000 nM
C[C@H](Nc1nccc(N(CC2CCNCC2)C(=O)c2ccc3ccccc3c2)n1)c1ccccc1	< 1000 nM
CCN(C(=O)c1cccc(C)c1)c1ccnc(N[C@@H](C)c2ccccc2)n1	< 1000 nM
C[C@H](Nc1nccc(N(CC2CCNCC2)C(=O)c2ccc3c(c2)CCO3)n1)c1ccccc1	< 1000 nM
CC(Nc1cc(N(Cc2ccc(F)cc2)C(=O)c2ccc3ccccc3c2)ccn1)c1ccc(F)cc1 (stereo unspecified)	≤ 1000 nM
COCCNc1nccc(N(CC2CCNCC2)C(=O)c2ccc3c(c2)CCO3)n1	< 1000 nM
COc1ccc([C@H](C)Nc2cc(N(Cc3ccc(F)cc3)C(=O)c3ccc4ccccc4c3)ccn2)cc1	≤ 1000 nM
COCCN(C(=O)c1ccc2ccccc2c1)c1ccnc(N[C@@H](C)c2ccccc2)n1	≤ 1000 nM
C[C@H](Nc1cc(N(Cc2ccc(F)cc2)C(=O)c2cccs2)ccn1)c1ccccc1	≤ 1000 nM
O=C(c1ccc2ccccc2c1)N(Cc1ccc(F)cc1)c1ccnc(NCc2ccccc2)c1	≤ 1000 nM
COCCCN(C(=O)c1ccc2ccccc2c1)c1ccnc(N[C@@H](C)c2ccccc2)n1	< 1000 nM
C[C@H](Nc1nccc(N(CC2CC2)C(=O)c2ccc3ccccc3c2)n1)c1ccccc1	< 1000 nM
O=C(c1ccc2ccccc2c1)N(Cc1ccc(F)cc1)c1ccnc(NC2CCCCC2)c1	≤ 1000 nM
CCN(C(=O)c1ccc2ccccc2c1)c1ccnc(NC2CCNCC2)n1	≤ 1000 nM
CCN(C(=O)c1cccc2c1OCCO2)c1ccnc(N[C@@H](C)c2ccccc2)n1	< 1000 nM
CCc1cccc(C(=O)N(CC)c2ccnc(N[C@@H](C)c3ccccc3)n2)c1	< 1000 nM

Structure (SMILES)	IC50
C[C@H](Nc1nccc(N(C(=O)c2ccc3ccccc3c2)C2CCNCC2)n1)c1ccccc1	≤ 1000 nM
COCCN(C(=O)c1ccc2c(c1)CCC2)c1ccnc(N[C@@H](C)c2ccccc2)n1	< 1000 nM
C[C@H](Nc1nccc(N(CC2CCNCC2)C(=O)c2ccc3c(c2)CCC3)n1)c1ccccc1	< 1000 nM
CCN(C(=O)c1cc(C)ccc1F)c1ccnc(N[C@@H](C)c2ccccc2)n1	< 1000 nM
CCN(C(=O)c1cccc(C2CC2)c1)c1ccnc(N[C@@H](C)c2ccccc2)n1	< 1000 nM
COC(=O)c1ccc(CNc2cc(N(Cc3ccc(F)cc3)C(=O)c3ccc4ccccc4c3)ccn2)cc1	≤ 1000 nM
CCN(C(=O)c1cccc(C)c1C)c1ccnc(N[C@@H](C)c2ccccc2)n1	< 1000 nM
CCC(Nc1cc(N(Cc2ccc(F)cc2)C(=O)c2ccc3ccccc3c2)ccn1)c1ccccc1 (stereo unspecified)	≤ 1000 nM
CCN(C(=O)c1cccc(Cl)c1)c1ccnc(N[C@@H](C)c2ccccc2)n1	< 1000 nM
O=C(c1ccc2ccccc2c1)N(Cc1ccc(F)cc1)c1ccnc(N[C@H]2CCCc3ccccc32)c1	≤ 1000 nM
C[C@H](Nc1nccc(N(CC2CCNCC2)C(=O)c2ccc3c(c2)CCCC3)n1)c1ccccc1	< 1000 nM
O=C(c1ccc2ccccc2c1)N(CC1CCNCC1)c1ccnc(NC2CCOCC2)n1	< 1000 nM
C[C@H](Nc1nccc(N(Cc2cccnc2)C(=O)c2ccc3ccccc3c2)n1)c1ccccc1	≤ 1000 nM
C[C@H](Nc1cc(N(Cc2ccc(F)cc2)C(=O)c2ccc3ccccc3c2)ncn1)c1ccccc1	≤ 1000 nM
CC(C)Nc1nccc(N(CCC[C@@H](N)C(=O)N(C)C)C(=O)c2ccc3c(c2)CCO3)n1	< 1000 nM
O=C(c1ccc2c(c1)CCO2)N(CC1CCNCC1)c1ccnc(NC2CCCC2)n1	< 1000 nM
CC(C)N(C(=O)c1ccc2ccccc2c1)c1ccnc(N[C@@H](C)c2ccccc2)n1	≤ 1000 nM
C[C@@H](Nc1cc(N(Cc2ccc(F)cc2)C(=O)c2ccc3ccccc3c2)ccn1)c1ccccc1	≤ 1000 nM
CCN(C(=O)c1ccc2c(c1)CCO2)c1ccnc(N[C@@H](C)c2ccccc2)n1	≤ 1000 nM
CCN(C(=O)c1ccc2c(c1)CCC2)c1ccnc(N[C@@H](C)c2ccccc2)n1	< 1000 nM
CCN(C(=O)c1ccc2ccccc2c1)c1ccnc(NC2CCC(N)CC2)n1 (stereo unspecified)	< 1000 nM
CC(C)Nc1cc(N(Cc2ccc(F)cc2)C(=O)c2ccc3ccccc3c2)ccn1	≤ 1000 nM
COCCCNc1nccc(N(CC2CCNCC2)C(=O)c2ccc3c(c2)CCO3)n1	< 1000 nM
CCN(C(=O)c1ccc2occc2c1)c1ccnc(N[C@@H](C)c2ccccc2)n1	< 1000 nM

From the Kinase Knowledgebase extract (Sharma et al. 2016)
